# Source: patent US8097440B1, “Engineered microorganisms capable of producing target compounds under anaerobic conditions” (Gevo, Inc., priority 2008, dated 2012)
# Biological target: T1, E. coli KARI Ec_IlvC variant Ec_IlvC^6E6-his6 (A71S, R76D, S78D, Q110V), SEQ ID NO: 34 (Escherichia coli, UniProt P05793, A71S/Q110V/R76D/S78D)
# T1 construct: T37 values cited for the gene on pGV1975
# T1 sequence (P05793 with tags, fused parts or gaps A71S/R76D/S78D/Q110V): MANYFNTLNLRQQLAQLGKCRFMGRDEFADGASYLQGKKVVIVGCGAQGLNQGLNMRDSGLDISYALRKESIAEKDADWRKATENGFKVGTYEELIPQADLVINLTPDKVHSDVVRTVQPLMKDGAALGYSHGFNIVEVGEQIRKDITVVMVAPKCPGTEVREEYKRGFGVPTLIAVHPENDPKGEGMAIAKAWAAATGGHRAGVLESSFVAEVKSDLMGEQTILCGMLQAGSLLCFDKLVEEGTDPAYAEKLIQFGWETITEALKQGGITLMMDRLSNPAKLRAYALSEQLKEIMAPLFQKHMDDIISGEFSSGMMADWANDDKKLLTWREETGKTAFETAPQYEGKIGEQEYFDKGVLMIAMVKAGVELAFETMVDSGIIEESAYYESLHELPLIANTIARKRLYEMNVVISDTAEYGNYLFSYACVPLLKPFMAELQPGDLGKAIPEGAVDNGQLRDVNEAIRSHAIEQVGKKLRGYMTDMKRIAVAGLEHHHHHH
# Experiment: KARI assay, purified Ec_IlvC^6E6-his6
# Assay type: biochemical
# Protocol: KARI cuvette assay: KARI activity was assayed kinetically by monitoring the decrease in NAD(P)H concentration by measuring the absorbance at 340 nm. A reaction buffer was prepared containing 250 mM potassium phosphate pH 7, 1 mM DTT and 10 mM MgCl2. Cell pellets were resuspended (0.25 g wet weight/mL buffer) in 250 mM potassium phosphate (KPi) buffer containing 1 mM DTT and 10 mM MgCl2. The resuspended cells were lysed by sonication for 1 min with a 50% duty cycle and pelleted at 11000×g and 4° C. for 15 min. A reaction mixture consisting of 910 μl reaction buffer, 50 μl acetolactate, and 20 μl lysate was prepared in a cuvette. […]
# Only 20% of the enzymes of the recombination library were active on NADH. After screening 1,000 clones using the NADH depletion assay at 340 nm, 26 KARI variants were selected for a rescreen by the high-throughput assay described in Example 14 and eight thereof were expressed in 25 ml LBamp medium in shake flasks according to the protocol for cell growth and protein expression in shake flasks as described in Example 14, purified according to the protocol for purification of KARI enzymes as described in Example 14, and NAD(P)H depletion at 340 nm was measured again. […] The KM values of variants Ec_llvC^2H10-his6 and Ec_llvC^6E6-his6 were measured and the catalytic efficiencies were calculated. […]
smiles,measurement,setting,value
"NC(=O)C1=CN([C@@H]2O[C@H](COP(=O)(O)OP(=O)(O)OC[C@H]3O[C@@H](n4cnc5c(N)ncnc54)[C@H](O)[C@@H]3O)[C@@H](O)[C@H]2O)C=CC1 [NADH, nicotinamide adenine dinucleotide]",kcat/KM,"Example 15, expressed in E. coli BL21(DE3), purified","74,045 M^−1 * s^−1"
same,activity (in terms of kcat/KM) on NADH compared to wild-type activity on NADPH,"best variant, relative to wild-type with NADPH",85%
